Source: patent publication US20250250265A1, “BENZOTHIAZOLE-PHENYLSULFONYL-PIPERIDINE ANALOGS AS ACTIVATORS OF NACYLPHOSPHATIDYLETHANOLAMINE HYDROLYZING PHOSPHOLIPASE D” (priority 2022, published 2025)
“Also recorded” adds a separate entry of the source. Read-outs that look alike come from different tables or passages of the source.

Assays:
[1] = target: T1, recombinant mouse NAPE-PLD (Mus musculus, UniProt Q8BH82); assay: In vitro fluorescence NAPE-PLD activity assay (HTS/CRC) with recombinant mouse NAPE-PLD and PED-A1; format: biochemical; conditions: for Emax (95% Cl): Table 4, maximal efficacy as fold increase in NAPE-PLD activity versus vehicle only; for bAC175: compound concentration to induce 175% basal activity; for Max % bA (%): maximum induced activity compared to basal (100%) activity
T1 construct: hexahistidine (His6) (C); made in house; host or cells: E. coli
T1 sequence (Q8BH82 1-396): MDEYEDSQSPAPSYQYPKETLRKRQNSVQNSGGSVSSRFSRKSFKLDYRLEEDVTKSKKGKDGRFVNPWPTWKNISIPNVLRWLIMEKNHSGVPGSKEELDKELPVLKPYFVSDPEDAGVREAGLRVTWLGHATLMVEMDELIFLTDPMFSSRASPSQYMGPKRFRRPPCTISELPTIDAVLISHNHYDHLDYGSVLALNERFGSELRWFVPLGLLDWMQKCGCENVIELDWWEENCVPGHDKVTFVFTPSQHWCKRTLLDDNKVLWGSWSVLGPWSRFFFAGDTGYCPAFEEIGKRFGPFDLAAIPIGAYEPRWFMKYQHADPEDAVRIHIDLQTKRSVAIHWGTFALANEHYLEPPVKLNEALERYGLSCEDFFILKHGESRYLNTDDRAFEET
Method: Using the fluorogenic NAPE substrate, PED-A1, and recombinant mouse NAPE-PLD (rNAPE-PLD), an in vitro high-throughput (HTS) assay was conducted to screen ˜40,000 compounds for their ability to modulate NAPE-PLD activity. The HTS assay enabled the detection of both NAPE-PLD activators and inhibitors. […] Initial structure-activity response studies with the top hits identified benzothiazole phenylsulfonyl-piperidine carboxamide analogs (BT-PSP analogs) as lead compounds for NAPE-PLD activators (Table 1). The lead BT-PSP analog identified, VU534, induces 50% of its activation effect on NAPE-PLD at 270 nM (AC50 270 nM), and induces a maximal effect of 195% of basal NAPE-PLD activity (Table 1).
In vitro fluorescence NAPE-PLD activity assays using recombinant NAPE-PLD and either PED-A1 or flame-NAPE as fluorogenic substrate were performed as previously described except with small modifications as noted below. See Aggarwal et al., J. Biol. Chem. 295(21): 7289-7300 (2020); Zarrow et al., J. Lipid Res. 63(1): 100156 (2022).
For the HTS assays, test compounds were incubated with recombinant enzyme for 1 h prior to adding PED-A1 (final 0.4 μM) mixed with N-palmitoyl-dioleoyl-PE (final 3.6 μM) to adjust for the high sensitivity of the Panoptic instrument (WaveFront Biosciences). Assays used black-wall, clear-bottom, non-sterile, and non-treated 384-well plates (Greiner Bio-One 781906). The assay was read in kinetic fluorescence mode on the Panoptic instrument for 4 min and the slope of the signal from 30-100 s was used for analysis. A total of 39,328 compounds from the Vanderbilt Discovery Collection were tested, each at 10 μM. The tested compounds were chosen to represent a structurally diverse selection from the full library. Each 384-well plate included 320 test compound wells and 64 control wells. Unlike previous pilot screening assays, bithionol (10 μM final) was used in place of lithocholic acid (100 μM final) as the inhibitor control. Before performing high-throughput screening, a checkerboard assay was performed to validate the assay parameters. This yielded a Z′ score of 0.676. Z′ scores were also calculated for each plate during screening, and plates with scores <0.5 were re-run. The average Z′ across all screening plates was 0.52, and the total hit rate was 3.6%. B-scores were calculated from the initial slopes across each plate using WaveGuide software (WaveFront Biosiences). Modulator hits were defined as compounds with absolute B-scores of 3 or higher. The number of compounds in various B-score ranges were as follows: […], 12 compounds; −10 to −5, 221 compounds; −5 to −3, 770 compounds; −3 to 3, 37924 compounds; 3 to 4, 314 compounds; 4 to 6, 70 compounds; 6 to 10, 15 compounds. Activator hits with B-scores of >3 were selected for the replication assay and a selection of analogs of the activators.
Concentration response curve (CRC) experiments used the same assay conditions as the HTS assay, except that graded concentrations of each test compound were used, with total amount of vehicle (DMSO) kept constant. CRC experiments with purified recombinant mouse NAPE-PLD were performed on two separate days, with values from each day normalized to vehicle only controls on same plate, and then all normalized values from both days averaged together. CRC experiments with human NAPE-PLD represent value from only a single day, due to limited amounts of this recombinant enzyme.

[2] = target: T2, NAPE-PLD activity of RAW264.7 macrophages (Mus musculus, UniProt Q8BH82); assay: Cell-based NAPE-PLD activity in RAW264.7 macrophages (PED-A1 with orlistat); conditions: for In-cell NAPE-PLD activity in RAW 264.7 (10 μM) with PED-A1 or flame-NAPE as substrate: Table 3; for 10 μM Mϕ % NAPE-PLD activity: Table 2, 10 μM compound, vehicle = 100%; for effect on NAPE-PLD activity in RAW264.7 cells: graded concentrations (FIG. 17A); for Emax, Nape-pld activity in RAW264.7 cells: FIG. 17A, PED-A1
T2 construct: endogenous in cells; host or cells: RAW264.7
T2 sequence (Q8BH82 1-396): T1 sequence (Q8BH82 1-396)
Method: NAPE-PLD activity was measured in cells as previously described, except that FluoroBrite DMEM (Gibco A1896701) was used as media. See Zarrow et al., J. Lipid Res. 63(1): 100156 (2022). For RAW264.7 assays, PED-A1 (3.6 μM final) was used as the substrate with 10 μM orlistat added to inhibit PLA1 activity, while for HepG2 cells, flame-NAPE was used (with no orlistat added).

[3] = target: T3, soluble epoxide hydrolase (sEH) (Homo sapiens, UniProt P34913); assay: sEH activity assay (Cayman Chemicals); format: biochemical; conditions: for Remaining sEH Activity (33 μM): Table 3; for inhibition at 33 µM: 33 μM compound, compared to vehicle (0%); for inhibition of sEH activity: graded concentrations
T3 construct: purchased Cayman Chemicals
T3 sequence (P34913 1-555): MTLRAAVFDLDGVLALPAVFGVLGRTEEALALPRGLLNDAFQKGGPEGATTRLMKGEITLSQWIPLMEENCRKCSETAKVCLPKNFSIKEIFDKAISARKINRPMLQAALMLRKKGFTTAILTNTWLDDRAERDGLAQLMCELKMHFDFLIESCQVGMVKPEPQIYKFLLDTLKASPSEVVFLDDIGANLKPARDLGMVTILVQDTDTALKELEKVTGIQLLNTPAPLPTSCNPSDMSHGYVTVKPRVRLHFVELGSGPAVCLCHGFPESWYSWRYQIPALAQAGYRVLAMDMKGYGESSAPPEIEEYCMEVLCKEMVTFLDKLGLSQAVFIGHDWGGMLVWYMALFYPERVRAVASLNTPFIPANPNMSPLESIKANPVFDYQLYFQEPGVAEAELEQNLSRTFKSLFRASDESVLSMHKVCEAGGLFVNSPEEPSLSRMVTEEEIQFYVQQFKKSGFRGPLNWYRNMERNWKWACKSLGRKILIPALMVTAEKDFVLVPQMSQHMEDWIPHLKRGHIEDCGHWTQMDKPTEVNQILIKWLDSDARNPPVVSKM
Method: Concentration response curves were plotted for VU534 for the enzymes fatty acid amide hydrolase (FAAH) and soluble epoxide hydrolase (sEH).
The fluorescence interference assay was performed using the same method as the HTS assay, but with BODIPY-FL C5 (Thermo Fisher Scientific) used in place of PED-A1. sEH and FAAH activity assays were performed according to the manufacturer's specifications (Cayman Chemicals).

[4] = Table 3, read-out: In vitro EC50
[5] = Table 3, read-out: In vitro Emax (100% activity is baseline activity of vehicle only)
[6] = Table 2, maximal induced activity for recombinant NAPE-PLD compared to basal (100%), read-out: Emax (%)
[7] = Table 2, rNAPE-PLD activity assay, read-out: EC50
[8] = Table 1, concentration for 50% maximum activation from basal activity (no activator)

SMILES	EC50 [1, 4] [nM]	Emax [1, 5] [%]	Emax (95% Cl) [1]	In-cell NAPE-PLD activity in RAW 264.7 (10 μM) with PED-A1 or flame-NAPE as substrate [2] [%]	Remaining sEH Activity (33 μM) [3] [%]	Emax [1, 6] [%]	EC50 [1, 7] [nM]	10 μM Mϕ % NAPE-PLD activity [2] [%]	inhibition at 33 µM [3] [%]	effect on NAPE-PLD activity in RAW264.7 cells [2]	inhibition of sEH activity [3]	bAC175 ([1]; Table 1) [nM]	AC50 [1, 8] [nM]	Max % bA (%) ([1]; Table 1)	AC50 (nM) [1, 8]	EC50 (μM) ([1]; Table 2, rNAPE-PLD activity assay)	Emax, Nape-pld activity in RAW264.7 cells [2] [fold]
Cc1cccc2sc(NC(=O)C3CCN(S(=O)(=O)c4ccc(F)c(Cl)c4)CC3)nc12 [VU209]	4700	179	1.9 (1.8-2.1) fold	136	62												
O=C(Nc1nc2ccccc2s1)C1CCN(S(=O)(=O)c2cccnc2)CC1 [VU203]	3400	183	1.8 (1.7-2.0) fold		59												
Cc1cccc2sc(NC(=O)C3CCN(S(=O)(=O)c4ccc(F)c(Cl)c4)CC3)nc12 [MRJ-058B]						180	4700	135	50								
Cc1ccc2nc(NC(=O)C3CCN(S(=O)(=O)c4ccc(F)cc4)CC3)sc2c1 [VU486]	240	189	1.8 (1.7-1.9) fold	107	60	190	240	105	40								
Cc1cccc2sc(NC(=O)C3CCN(S(=O)(=O)c4cccnc4)CC3)nc12 [MRJ-058C]						175	940	115	50								
O=C(Nc1nc2ccccc2s1)C1CCN(S(=O)(=O)c2ccc(F)c(Cl)c2)CC1 [VU233]			<1.2 fold		117					no significant effect; also recorded: not significant	neither VU533 nor VU233 significantly inhibited seH						
Cc1cccc2sc(NC(=O)C3CCN(S(=O)(=O)c4cnn(C)c4)CC3)nc12 [VU210]	1500	239	2.4 (2.3-2.6) fold	98	81												
Cn1cc(S(=O)(=O)N2CCC(C(=O)Nc3nc4ccccc4s3)CC2)cn1 [VU227]	~2900	~150	1.7 (1.6-1.9) fold	102	63												
Cc1ccc2sc(NC(=O)C3CCN(S(=O)(=O)c4ccc(F)cc4)CC3)nc2c1C [VU517]	1500	213	2.0 (2.0-2.1) fold	123	29	210	1500	125	70			1480	767	190			
Cc1cc2nc(NC(=O)C3CCN(S(=O)(=O)c4ccc(F)cc4)CC3)sc2cc1C [VU536]	890	227	2.3 (2.2-2.4) fold	155	49	225	890	155	50			2400	1540	215			
Cc1ccc(S(=O)(=O)N2CCC(C(=O)Nc3nc4c(C)cc(C)cc4s3)CC2)cc1 [VU575]	190	215	2.4 (2.3-2.5) fold	107	55	220	190	105	45			1690	950	210			
Cc1ccc(C)c2sc(NC(=O)C3CCN(S(=O)(=O)c4ccc(F)cc4)CC3)nc12 [VU533]			2.6 (2.6-2.8) fold			< 120				significantly increased NAPE-PLD activity	neither VU533 nor VU233 significantly inhibited seH			<120	Not active	Inactive	2.2
Cc1cc(C)c2sc(NC(=O)C3CCN(S(=O)(=O)c4ccc(F)cc4)CC3)nc2c1 [VU534, N-(5,7-Dimethylbenzo[d]thiazol-2-yl)-1-((4-fluorophenyl)sulfonyl)piperidine-4-carboxamide]	290	209	2.1 (2.0-2.2) fold	139	27	205	280	140	75	significantly increased NAPE-PLD activity	inhibition of sEH; also recorded: modest inhibition; also recorded: inhibits	750	270	195			1.6
